Source: paper PMC12074421, “Development and Characterization of pFluor50, a Fluorogenic-Based Kinetic Assay System for High-Throughput Inhibition Screening and Characterization of Time-Dependent Inhibition and Inhibition Type for Six Human CYPs” (Molecules, 2025)
Values joined by “and” are separate entries in the source; they are usually repeats but may differ in a detail not shown here. Equal entries are not always repeated.

Legend:
CYP2C19 = target: T1, CYP2C19 (Homo sapiens, UniProt P33261); test: pFluor50 Michaelis–Menten kinetics, CYP2C19 with 3OMF; format: in vitro ADME
T1 construct: purchased Sigma Aldrich (CYPexpress, Oxford Biomedical Research, Inc.) MTOXCE2C19
Method: (§1) In general, the protocol for determination of the Michaelis–Menten kinetic parameters (KM and Vmax) involved addition of the appropriate master mix to phosphate buffer followed by addition of the appropriate amount of enzyme to the mix. The master mix was determined for each specific CPY450 based on empirical methods involving each reagent to obtain a linear range of enzyme activity. A total of 30 µL of this enzyme mix was then added to each well of the 384-well plate. Next, initial background readings were taken for 5 min, after which the appropriate amount of substrate was dispensed into each well using the onboard reagent dispenser of the plate reader. All plates contained one blank well without enzyme (only master mix) for each substrate concentration. […] Table 1 provides the formulation of the master mix for each CYP, the kinetic read time with substrate, the read time interval, the concentration range of the substrate used for the Michaelis–Menten kinetics, the Ex and Em wavelengths, and the concentration of substrate for inhibition/activation screening. Table S1 details the specific parameters used for the plate reader for each CYP–substrate pair.
(§2) For determining the Michaelis–Menten kinetic parameters (KM and Vmax) for each CYP–substrate pair, kinetic studies were performed in which a range of different concentrations of the substrate were used. Table 1 details the formulations for the master mix, CYPexpress^TM concentrations, and concentration ranges of each specific substrate. For each CYP–substrate pair, plate reader parameters were set up as described in Table S1. […] Briefly, the working solution was prepared for each substrate and then primed into one of the dispensers on the plate reader. […] The amount of CYPexpress reagent in units/(mg/mL) was determined for each enzyme as new lots may have slightly different activities, and the activity of the reagent may change over time. The appropriate mass of each CYPexpress^TM reagent needed to obtain the required units was measured using an analytical balance and was transferred to the master mix solution. […]

CYP2C9 = CYP2C9 (Homo sapiens, UniProt P11712); test: pFluor50 Michaelis–Menten kinetics, CYP2C9 with Eres; format: in vitro ADME; parameters: purchased Sigma Aldrich (CYPexpress, Oxford Biomedical Research, Inc.) MTOXCE2C9
Chain of CYP2C9 (P11712 whole entry): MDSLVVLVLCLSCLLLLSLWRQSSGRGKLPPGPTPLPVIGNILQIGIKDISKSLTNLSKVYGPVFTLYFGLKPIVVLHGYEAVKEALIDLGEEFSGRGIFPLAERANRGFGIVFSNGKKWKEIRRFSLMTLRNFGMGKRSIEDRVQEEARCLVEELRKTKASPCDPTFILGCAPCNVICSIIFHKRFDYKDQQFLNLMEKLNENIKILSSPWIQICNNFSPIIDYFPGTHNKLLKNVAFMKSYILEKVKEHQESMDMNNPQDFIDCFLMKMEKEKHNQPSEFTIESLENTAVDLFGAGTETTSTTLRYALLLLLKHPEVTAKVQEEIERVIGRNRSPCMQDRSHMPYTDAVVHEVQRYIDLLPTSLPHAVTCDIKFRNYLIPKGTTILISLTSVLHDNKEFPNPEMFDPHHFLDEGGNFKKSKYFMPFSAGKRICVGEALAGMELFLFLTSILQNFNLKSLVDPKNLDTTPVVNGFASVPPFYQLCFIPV
Method: as §1, §2

CYP2D6 = CYP2D6 (Homo sapiens, UniProt P10635); test: pFluor50 Michaelis–Menten kinetics, CYP2D6 with Eres; format: in vitro ADME; parameters: purchased Sigma Aldrich (CYPexpress, Oxford Biomedical Research, Inc.) MTOXCE2D6
Chain of CYP2D6 (P10635 whole entry): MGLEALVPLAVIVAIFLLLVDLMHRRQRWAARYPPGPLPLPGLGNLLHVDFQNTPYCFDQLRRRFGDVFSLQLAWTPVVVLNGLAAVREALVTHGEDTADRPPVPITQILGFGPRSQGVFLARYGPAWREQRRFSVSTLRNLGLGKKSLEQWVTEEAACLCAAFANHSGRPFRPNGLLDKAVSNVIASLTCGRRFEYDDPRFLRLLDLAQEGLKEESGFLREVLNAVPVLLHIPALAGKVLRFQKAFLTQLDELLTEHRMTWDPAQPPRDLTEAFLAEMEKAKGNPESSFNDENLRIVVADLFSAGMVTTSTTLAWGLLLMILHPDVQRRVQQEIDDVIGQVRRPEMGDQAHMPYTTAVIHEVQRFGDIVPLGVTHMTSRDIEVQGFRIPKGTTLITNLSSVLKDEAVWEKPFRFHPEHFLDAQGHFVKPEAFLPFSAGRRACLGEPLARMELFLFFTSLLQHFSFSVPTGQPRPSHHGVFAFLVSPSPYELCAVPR
Method: as §1, with “reader.” for “reader. All plates contained one blank well without enzyme (only master mix) for each substrate concentration.”
For determining the Michaelis–Menten kinetic parameters (KM and Vmax) for each CYP–substrate pair, kinetic studies were performed in which a range of different concentrations of the substrate were used. […] For each CYP–substrate pair, plate reader parameters were set up as described in Table S1. […]

[1] = substrate: COc1ccc2c(-c3ccccc3C(=O)O)c3ccc(=O)cc-3oc2c1; test: pFluor50 Michaelis–Menten kinetics, CYP2C19 with 3OMF; format: in vitro ADME, human; settings: pH 7.4
Method: as §1
For determining the Michaelis–Menten kinetic parameters (KM and Vmax) for each CYP–substrate pair, kinetic studies were performed in which a range of different concentrations of the substrate were used. […] For each CYP–substrate pair, plate reader parameters were set up as described in Table S1. […] Briefly, the working solution was prepared for each substrate and then primed into one of the dispensers on the plate reader. […] The amount of CYPexpress reagent in units/(mg/mL) was determined for each enzyme as new lots may have slightly different activities, and the activity of the reagent may change over time. The appropriate mass of each CYPexpress^TM reagent needed to obtain the required units was measured using an analytical balance and was transferred to the master mix solution. […] The plate was then transferred to the plate reader and readings were taken at the time intervals, for the appropriate length of time, and at the appropriate wavelengths as specified in Table 1.
Calibration curves were constructed using the determined plate reader settings (Figure S3) and concentrations of the products formed to allow for the calculation of product formation rates based on the observed fluorescence. For these calculations, we presumed that the total increase in observed fluorescence over time was due only to product formation. Calibration curves were generated with 6 different concentrations of the products (fluorescein and resorufin), which spanned the relative fluorescence units (RFU) observed during the kinetic experiments. […]

[2] = other: CYP2C19 2 mg/mL, three biological replicates

COc1ccc2c(-c3ccccc3C(=O)O)c3ccc(=O)cc-3oc2c1 [3OMF, 2-(6-methoxy-3-oxo-3H-xanthen-9-yl)benzoic acid]
Vmax – repeat 1 (CYP2C19; CYP2C19, biological repeat 1): 19.35 nmol/min | Vmax – repeat 2 (CYP2C19; CYP2C19, biological repeat 2): 15.86 nmol/min | Vmax – repeat 3 (CYP2C19; CYP2C19, biological repeat 3): 19.37 nmol/min

CCOc1ccc2nc3ccc(=O)cc-3oc2c1 [Eres, 7-ethoxy-3H-phenoxazin-3-one]
Vmax – repeat 1 (CYP2C9; CYP2C9, biological repeat 1): 0.40 nmol/min | Vmax – repeat 2 (CYP2C9; CYP2C9, biological repeat 2): 0.39 nmol/min | Vmax – repeat 3 (CYP2C9; CYP2C9, biological repeat 3): 0.49 nmol/min | Vmax – repeat 1 (CYP2D6; CYP2D6, biological repeat 1): 1.22 nmol/min | Vmax – repeat 2 (CYP2D6; CYP2D6, biological repeat 2): 0.72 nmol/min

B1: CYP2C19 (Homo sapiens) (protein)
chain: MDPFVVLVLCLSCLLLLSIWRQSSGRGKLPPGPTPLPVIGNILQIDIKDVSKSLTNLSKIYGPVFTLYFGLERMVVLHGYEVVKEALIDLGEEFSGRGHFPLAERANRGFGIVFSNGKRWKEIRRFSLMTLRNFGMGKRSIEDRVQEEARCLVEELRKTKASPCDPTFILGCAPCNVICSIIFQKRFDYKDQQFLNLMEKLNENIRIVSTPWIQICNNFPTIIDYFPGTHNKLLKNLAFMESDILEKVKEHQESMDINNPRDFIDCFLIKMEKEKQNQQSEFTIENLVITAADLLGAGTETTSTTLRYALLLLLKHPEVTAKVQEEIERVIGRNRSPCMQDRGHMPYTDAVVHEVQRYIDLIPTSLPHAVTCDVKFRNYLIPKGTTILTSLTSVLHDNKEFPNPEMFDPRHFLDEGGNFKKSNYFMPFSAGKRICVGEGLARMELFLFLTFILQNFNLKSLIDPKDLDTTPVVNGFASVPPFYQLCFIPV
notes: purchased Sigma Aldrich (CYPexpress, Oxford Biomedical Research, Inc.) MTOXCE2C19
Km [1, 2]: 2.3 ± 0.8 µM and 2.31 ± 0.8 µM | Vmax [1, 2]: 0.0182 µmol/min | Km ([1]; other: CYP2C19, biological repeat 1): 3.19 µM | Km ([1]; other: CYP2C19, biological repeat 2): 1.42 µM
